Data taken from ChEMBL document CHEMBL4665680, “Drug Induced Liver Injury (DILI). Mechanisms and Medicinal Chemistry Avoidance/Mitigation Strategies” (J Med Chem, 2020).

assay: Toxicity in po dosed human assessed as maximum daily dose; type: organism-based; details: in vivo

Going from CC(C)(C)NC(=O)[C@@H]1C[C@@H]2CCCC[C@@H]2CN1C[C@@H](O)[C@H](Cc1ccccc1)NC(=O)[C@H](CC(N)=O)NC(=O)c1ccc2ccccc2n1 to COC(=O)C1=C(C)NC(C)=C(C(=O)OCCN(C)Cc2ccccc2)C1c1cccc([N+](=O)[O-])c1 (stereo not drawn) [NICARDIPINE], the Activity falls from 2000 mg to 120 mg.

Compared with CCCN(CCC)C(=O)Cc1c(-c2ccc(Cl)cc2)nc2ccc(Cl)cn12 [ALPIDEM], CCCCc1nc(Cl)c(CO)n1Cc1ccc(-c2ccccc2-c2nn[nH]n2)cc1 [LOSARTAN] is lower in Activity: 150 mg for the first, 100 mg for the second.

Going from COc1ccc(Cl)cc1C(=O)NCCc1ccc(S(=O)(=O)NC(=O)NC2CCCCC2)cc1 [GLYBURIDE] to CCc1ccc(CCOc2ccc(CC3SC(=O)NC3=O)cc2)nc1 (stereo not drawn) [PIOGLITAZONE], the Activity rises from 20 mg to 45 mg.

Going from CCCCC1=NC2(CCCC2)C(=O)N1Cc1ccc(-c2ccccc2-c2nnn[nH]2)cc1 [IRBESARTAN] to CCc1nn(CCCN2CCN(c3cccc(Cl)c3)CC2)c(=O)n1CCOc1ccccc1 [NEFAZODONE], the Activity rises from 300 mg to 600 mg.

First: CC(=O)N1CCN(c2ccc(OCC3COC(Cn4ccnc4)(c4ccc(Cl)cc4Cl)O3)cc2)CC1 (stereo not drawn) [KETOCONAZOLE]
Second: CN(CCOc1ccc(CC2SC(=O)NC2=O)cc1)c1ccccn1 (stereo not drawn) [ROSIGLITAZONE]
The Activity of the first is higher: 400 mg for the first, 8 mg for the second.

First: CS(=O)(=O)CCNCc1ccc(-c2ccc3ncnc(Nc4ccc(OCc5cccc(F)c5)c(Cl)c4)c3c2)o1 [LAPATINIB]
Second: Cc1c(C)c2c(c(C)c1O)CCC(C)(COc1ccc(CC3SC(=O)NC3=O)cc1)O2 (stereo not drawn) [TROGLITAZONE]
The Activity of the first is higher: 1500 mg for the first, 600 mg for the second.

Compound COC(=O)[C@H]1[C@H]2C[C@@H]3c4[nH]c5cc(OC)ccc5c4CCN3C[C@H]2C[C@@H](OC(=O)c2cc(OC)c(OC)c(OC)c2)[C@@H]1OC [RESERPINE] has an Activity of 0.5 mg.
